Reference: ChEMBL document CHEMBL1938230, “6-Position optimization of tricyclic 4-quinolone-based inhibitors of glycogen synthase kinase-3β: discovery of nitrile derivatives with picomolar potency” (Bioorg Med Chem Lett, 2012)
≈ marks a conversion by molar mass, not a printed value.

Legend:
[1] = target: Glycogen synthase kinase-3 beta (Homo sapiens, UniProt P49841); test: Inhibition of GSK3-beta
Escherichia coli = test: Antibacterial activity against Escherichia coli ATCC 8739; type: ADME, organism-based
Staphylococcus aureus = test: Antibacterial activity against Staphylococcus aureus Smith; type: ADME, organism-based

Chain of Glycogen synthase kinase-3 beta (P49841 whole entry): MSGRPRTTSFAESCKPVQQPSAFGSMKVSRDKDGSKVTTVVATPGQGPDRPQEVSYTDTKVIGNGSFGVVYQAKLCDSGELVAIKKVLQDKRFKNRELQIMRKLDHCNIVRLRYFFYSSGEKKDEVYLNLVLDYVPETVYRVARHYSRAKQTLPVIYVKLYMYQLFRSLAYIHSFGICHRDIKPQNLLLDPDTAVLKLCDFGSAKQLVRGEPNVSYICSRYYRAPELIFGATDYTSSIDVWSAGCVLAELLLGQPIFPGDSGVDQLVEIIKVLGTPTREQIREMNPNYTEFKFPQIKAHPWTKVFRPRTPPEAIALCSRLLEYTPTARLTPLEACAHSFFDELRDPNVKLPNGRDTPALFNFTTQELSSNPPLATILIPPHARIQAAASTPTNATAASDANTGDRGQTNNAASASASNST

Row | IC50 [1] | MIC (Escherichia coli) | MIC (Staphylococcus aureus) | Compound
1 | 71 nM | – | – | C[C@H]1COc2c(NCCCc3ccccn3)c(F)c(N)c3c(=O)c(C(=N)NO)cn1c23
2 | 67 nM | > 78 µM | 78 µM (≈ 32 µg/mL) | C[C@H]1COc2c(NCCCc3ccccc3)c(F)c(N)c3c(=O)c(C(N)=O)cn1c23
3 | 1 nM | > 306 µM | > 306 µM | C[C@H]1COc2c(NCCCn3ccnc3)c(F)c(N)c3c(=O)c(C#N)cn1c23
4 | 2.4 nM | > 274 µM | 69 µM (≈ 30.1 µg/mL) | C[C@H]1COc2c(NCCCc3ccccn3)c(F)c(N)c3c(=O)c(-c4nnn[nH]4)cn1c23
5 | 40 nM | > 39 µM | 2 µM (≈ 0.823 µg/mL) | C[C@H]1COc2c(NCCCc3ccccc3)c(F)c(N)c3c(=O)c(C(=O)O)cn1c23
6 | 1.4 nM | – | – | C[C@H]1COc2c(NCCCc3ccccc3)c(F)c(N)c3c(=O)c(C#N)cn1c23
7 | 33 nM | > 285 µM | > 285 µM | C[C@H]1COc2c(NCCNc3ccccn3)c(F)c(N)c3c(=O)c(C(N)=O)cn1c23
8 | 180 nM | > 249 µM | > 249 µM | C[C@H]1COc2c(NCCCn3ccnc3)c(F)c(N)c3c(=O)c(C(N)=O)cn1c23
9 | – | 4 µM (≈ 1.65 µg/mL) | 2 µM (≈ 0.827 µg/mL) | C[C@H]1COc2c(NCCNc3ccccn3)c(F)c(N)c3c(=O)c(C(=O)O)cn1c23
10 | 0.57 nM | – | – | C[C@H]1COc2c(NCCNc3ccccn3)c(F)c(N)c3c(=O)c(C#N)cn1c23
11 | 20 nM | > 257 µM | > 257 µM | C[C@H]1COc2c(NCCCn3ccnc3)c(F)c(N)c3c(=O)c(-c4nnn[nH]4)cn1c23
12 | 150 nM | 16 µM (≈ 6.42 µg/mL) | 8 µM (≈ 3.21 µg/mL) | C[C@H]1COc2c(NCCCn3ccnc3)c(F)c(N)c3c(=O)c(C(=O)O)cn1c23
13 | 140 nM | – | – | C[C@H]1COc2c(NCCCn3ccnc3)c(F)c(N)c3c(=O)c(C(=N)NO)cn1c23
